This is an account of results in US20100015576A1, “METHOD AND APPARATUS FOR DIAGNOSTIC AND TREATMENT USING HARD TISSUE OR MATERIAL MICROPERFORATION” (RejuveDent LLC, priority 2007, published 2010).

For data set [1] the following is noted: value used as input for the model calculation, cited from earlier work; for diffusion coefficient, peritubular: peritubular dentine; for diffusion coefficient, tubular: tubular dentine.
The conditions of data set [2]: in 14 hours; 33% hydrogen peroxide on micro-perforations.
Protocol: One freshly extracted lower human incisor was used in the experiment. Immediately after extraction, the tooth was stored in a 0.1% w/w thymol solution at a temperature of +4-6° C. for 3 weeks.
The nature of data set [3]: In vivo whitening of teeth through laser microperforations.

As to `O` [water], in data set [1], the “diffusion coefficient in intertubular dentine” value is reported as 1.74×10^−6 cm^2/sec; the “diffusion coefficient, peritubular” value is recorded as 1.74×10^−7 cm^2/sec; the “diffusion coefficient, tubular” value is recorded as 1.74×10^−5 cm^2/sec.

Regarding `OO` [hydrogen peroxide], the “brown discoloration of the root surface” value in data set [2] is “completely bleached”. Besides, in data set [1], the “diffusion coefficient in intertubular dentine” value is reported as 3.6×10^−7 cm^2/sec. Moreover, the “diffusion coefficient, peritubular” value in data set [1] was 3.6×10^−8 cm^2/sec. The “diffusion coefficient, tubular” value in data set [1] is 3.6×10^−6 cm^2/sec. In addition, the “whitening effect (VITA scale)” value is “one shade” in data set [3] (Patient 1, 5 days after the procedure, peroxide 105 min at 37° C., 4 laser holes); “one more shade” in data set [3] (Patient 1, 7 days after the procedure, peroxide 105 min at 37° C., 4 laser holes); “two shades (A3 to A1)” in data set [3] (Patients 2 and 3, 1 day after the procedure, peroxide 70 min / 45 min at 37° C.). The “adverse effects on the oral mucosa” value in data set [3] (three patients) is “didn't observe any adverse effects”. Moreover, the “pulp vitality (follow-up histopathology)” value in data set [3] (treated teeth, after extraction) is listed as “confirmed the vitality of the pulp”.
